Experimental data taken from PubChem BioAssay AID270 (DTP/NCI, 2004).
Where “and” joins values, the source holds several entries; their conditions need not be identical. Identical values can stand only once. Records with an inconclusive call do not appear.

Test system: BDF1 mice, s.c. Lewis lung carcinoma, T/C %
Experiment: NCI In Vivo Anticancer Drug Screen. Data for tumor model Lewis Lung Carcinoma (subcutaneous) in B6D2F1 (BDF1) mice
In short: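 Antitumor effect in vivo is scored from survival or tumor burden, reported as treated relative to vehicle controls.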

[1] = endpoint: mean tumor weight, dose: 50.0 mg/kg/injection, schedule: Q01DX011 (ip), vehicle: carboxymethylcellulose (CMC), higher = larger tumour

## CC(=O)OCC(=O)[C@@]1(O)CC[C@H]2[C@@H]3C[C@H](C)C4=CC(=O)C=C[C@]4(C)[C@@]3(Br)[C@@H](O)C[C@@]21C
endpoint: mean tumor weight, dose: 0.56 mg/kg/injection, schedule: Q01DX011 (sc), vehicle: steriod suspending solution, higher = larger tumour
  T/C: 89 % of control
endpoint: mean tumor weight, dose: 1.12 mg/kg/injection, schedule: Q01DX011 (sc), vehicle: steriod suspending solution, higher = larger tumour
  T/C: 69 % of control
endpoint: mean tumor weight, dose: 4.5 mg/kg/injection, schedule: Q01DX011 (sc), vehicle: steriod suspending solution, higher = larger tumour
  T/C: 57 % of control and 72 % of control
endpoint: mean tumor weight, dose: 5.3 mg/kg/injection, schedule: Q01DX011 (sc), vehicle: steriod suspending solution, higher = larger tumour
  T/C: 50 % of control
endpoint: mean tumor weight, dose: 7.9 mg/kg/injection, schedule: Q01DX011 (sc), vehicle: steriod suspending solution, higher = larger tumour
  T/C: 45 % of control
endpoint: mean tumor weight, dose: 9.0 mg/kg/injection, schedule: Q01DX011 (sc), vehicle: steriod suspending solution, higher = larger tumour
  T/C: 52 % of control
endpoint: mean tumor weight, dose: 11.8 mg/kg/injection, schedule: Q01DX011 (sc), vehicle: steriod suspending solution, higher = larger tumour
  T/C: 31 % of control
endpoint: mean tumor weight, dose: 17.7 mg/kg/injection, schedule: Q01DX011 (ip), vehicle: carboxymethylcellulose (CMC), higher = larger tumour
  T/C: 44 % of control
endpoint: mean tumor weight, dose: 17.7 mg/kg/injection, schedule: Q01DX011 (sc), vehicle: steriod suspending solution, higher = larger tumour
  T/C: 28 % of control and 38 % of control
endpoint: mean tumor weight, dose: 18.0 mg/kg/injection, schedule: Q01DX011 (sc), vehicle: steriod suspending solution, higher = larger tumour
  T/C: 42 % of control
endpoint: mean tumor weight, dose: 26.6 mg/kg/injection, schedule: Q01DX011 (ip), vehicle: carboxymethylcellulose (CMC), higher = larger tumour
  T/C: 48 % of control
endpoint: mean tumor weight, dose: 26.6 mg/kg/injection, schedule: Q01DX011 (sc), vehicle: steriod suspending solution, higher = larger tumour
  T/C: 37 % of control
endpoint: mean tumor weight, dose: 27.0 mg/kg/injection, schedule: Q01DX011 (sc), vehicle: steriod suspending solution, higher = larger tumour
  T/C: 37 % of control
endpoint: mean tumor weight, dose: 40.0 mg/kg/injection, schedule: Q01DX011 (ip), vehicle: carboxymethylcellulose (CMC), higher = larger tumour
  T/C: 13 % of control
endpoint: mean tumor weight, dose: 40.0 mg/kg/injection, schedule: Q01DX011 (sc), vehicle: steriod suspending solution, higher = larger tumour
  T/C: 32 % of control
[1]
  T/C: 59 % of control
endpoint: mean tumor weight, dose: 60.0 mg/kg/injection, schedule: Q01DX011 (ip), vehicle: carboxymethylcellulose (CMC), higher = larger tumour
  T/C: 6 % of control
endpoint: mean tumor weight, dose: 60.0 mg/kg/injection, schedule: Q01DX011 (sc), vehicle: steriod suspending solution, higher = larger tumour
  T/C: 34 % of control

## COc1cc(C2c3cc4c(cc3CC3COC(=O)C32)OCO4)cc(OC)c1O (stereo unspecified)
endpoint: median survival time, dose: 0.5 mg/kg/injection, schedule: Q01DX009 (ip), vehicle: saline with Tween-80, higher = longer survival
  T/C: 104 % of control
endpoint: median survival time, dose: 1.0 mg/kg/injection, schedule: Q01DX009 (ip), vehicle: saline with Tween-80, higher = longer survival
  T/C: 101 % of control
endpoint: median survival time, dose: 2.0 mg/kg/injection, schedule: Q01DX009 (ip), vehicle: saline with Tween-80, higher = longer survival
  T/C: 107 % of control

## NC1(C(=O)O)CCCC1
endpoint: mean tumor weight, dose: 30.0 mg/kg/injection, schedule: Q01DX011 (ip), vehicle: saline, higher = larger tumour
  T/C: 38 % of control and 61 % of control
endpoint: mean tumor weight, dose: 60.0 mg/kg/injection, schedule: Q01DX011 (ip), vehicle: saline, higher = larger tumour
  T/C: 25 % of control and 30 % of control
endpoint: mean tumor weight, dose: 120.0 mg/kg/injection, schedule: Q01DX011 (ip), vehicle: saline, higher = larger tumour
  T/C: 8 % of control
endpoint: median survival time, dose: 1.6 mg/kg/injection, schedule: Q01DX009 (ip), vehicle: carboxymethylcellulose (CMC), higher = longer survival
  T/C: 96 % of control
endpoint: median survival time, dose: 6.25 mg/kg/injection, schedule: Q01DX009 (ip), vehicle: carboxymethylcellulose (CMC), higher = longer survival
  T/C: 123 % of control

## CN(C)c1ccc(-c2cc[n+](C)cc2)cc1
endpoint: median survival time, dose: 0.5 mg/kg/injection, schedule: Q01DX009 (ip), vehicle: saline, higher = longer survival
  T/C: 103 % of control
endpoint: median survival time, dose: 1.0 mg/kg/injection, schedule: Q01DX009 (ip), vehicle: saline, higher = longer survival
  T/C: 114 % of control
endpoint: median survival time, dose: 2.0 mg/kg/injection, schedule: Q01DX009 (ip), vehicle: saline, higher = longer survival
  T/C: 119 % of control
endpoint: median survival time, dose: 3.0 mg/kg/injection, schedule: Q01DX009 (ip), vehicle: saline, higher = longer survival
  T/C: 106 % of control
endpoint: median survival time, dose: 6.0 mg/kg/injection, schedule: Q01DX009 (ip), vehicle: saline, higher = longer survival
  T/C: 103 % of control

## COc1cc2c[n+](C)c3c4cc5c(cc4ccc3c2cc1OC)OCO5 (tested in a mixture with another compound)
endpoint: median survival time, dose: 5.0 mg/kg/injection, schedule: Q01DX009 (ip), vehicle: saline, higher = longer survival
  T/C: 92 % of control
endpoint: median survival time, dose: 10.0 mg/kg/injection, schedule: Q01DX009 (ip), vehicle: saline, higher = longer survival
  T/C: 96 % of control
endpoint: median survival time, dose: 20.0 mg/kg/injection, schedule: Q01DX009 (ip), vehicle: saline, higher = longer survival
  T/C: 86 % of control

## CCN(CC)C(=S)S.[Te]
[1]
  T/C: 24 % of control and 36 % of control
endpoint: mean tumor weight, dose: 200.0 mg/kg/injection, schedule: Q01DX011 (ip), vehicle: carboxymethylcellulose (CMC), higher = larger tumour
  T/C: 10 % of control
